How the values were obtained:
bone resorption = tested on: bone resorption; design: method as in PMID 18593621; conditions: preclinical models of bone resorption; cited from earlier work

Row | melting point | Structure (SMILES) | potency relative to clodronate and pamidronate (bone resorption) | potency relative to etidronate (bone resorption)
1 | 183 to 186 °C | Cc1nccn1CCC(O)(P(=O)(O)O)P(=O)(O)O [Compound 4a, 1-Hydroxy-3-(2-methyl-1H-imidazol-1-yl)propane-1,1-diyldiphosphonic acid] |  | 
2 | 142 to 145 °C | Cc1nccn1CCCC(O)(P(=O)(O)O)P(=O)(O)O [Compound 4b, 1-Hydroxy-4-(2-methyl-1H-imidazol-1-yl)butane-1,1-diyldiphosphonic acid] |  | 
3 | 212 to 215 °C | Cc1nccn1CCCCC(O)(P(=O)(O)O)P(=O)(O)O [Compound 4c, 1-Hydroxy-5-(2-methyl-1H-imidazol-1-yl)pentane-1,1-diyldiphosphonic acid] |  | 
4 |  | O=P(O)(O)C(O)(Cn1ccnc1)P(=O)(O)O [ZL, 1-hydroxy-2-(imidazol-1-yl)-ethylidene-1,1-bisphosphonic acid] | at least 100 times | at least 1,000 times
